Assay results as given in patent US20150374394A1, “SONOLYSIS WITH BIODEGRADABLE NANOPARTICLES” (THE BOARD OF TRUSTEES OF THE UNIVERSITY OF ARKANSAS, priority 2012, published 2015).

System: clots formed from pooled rabbit plasma with rabbit blood cells
Assay: In vitro sonothrombolysis (STBL) of clots with MBs, CPDL, tPA and/or 450 nm StNPs, pulsed 1 MHz ultrasound
Conditions: pulsed 1 MHz ultrasound 15 min, in bovine calf serum, 0.5 mL/min; control ultrasound alone; 3 μm MBs, 0.1 mg/ml tPA, 0.06% w/V CPDL nanoemulsion
Method: FIG. 1 depicts a graph showing the potentiation of sonothrombolysis (STBL) efficacy by microbubbles (MBs) and/or a nanoemulsion of cyclopentadecanolide with or without tissue plasminogen activator (tPA). […] STBL was performed with fibrin-rich clots (see Example 2) using pulsed, 1 MHz ultrasound for 15 min. The MBs, tPA, StNPs etc. were suspended in bovine calf serum and introduced at a flow rate of 0.5 mL/min. STBL efficacy is reported as % clot lysis. Abbreviations: US=ultrasound; MBs=microbubbles; CPDL=cyclopentadecanolide; StNPs=starch nanoparticles; tPA=tissue plasminogen activator.
The clots used in these experiments were formed by mixing pooled rabbit plasma with rabbit blood cells (final volume equal to 2 mL; the volume of whole rabbit blood from which the cells were obtained), incubating this mixture for 24 h at 37° C. and then curing the formed clots for 24 h at 5° C. […] The StNPs were diluted to have an Optical Density reading at 530 nm (OD530) of 1.0. […] STBL efficacy was measured as the percent of the initial clot mass that was lost from the clot during the 15 min treatment time.

O=C1CCCCCCCCCCCCCCO1 [CPDL, cyclopentadecanolide]
STBL efficacy (FIG. 1), in words: improved STBL efficacy markedly
